Reference: paper PMC8805605, “Discovery of Dimeric Arylsulfonamides as Potent ADAM8 Inhibitors” (ACS Medicinal Chemistry Letters, 2021)
pIC50: −log10 of the molar value.

Tests used:
MMP-1 = biological target: T1, MMP-1 (Homo sapiens, UniProt P03956); assay: MMP-1 fluorometric inhibition assay; format: biochemical; conditions: mean of three independent experiments in duplicate, read-out: In vitro inhibitory activity IC50 on MMP-1
T1 construct: purchased Calbiochem (Merck-Millipore)
T1 sequence (P03956 100-469): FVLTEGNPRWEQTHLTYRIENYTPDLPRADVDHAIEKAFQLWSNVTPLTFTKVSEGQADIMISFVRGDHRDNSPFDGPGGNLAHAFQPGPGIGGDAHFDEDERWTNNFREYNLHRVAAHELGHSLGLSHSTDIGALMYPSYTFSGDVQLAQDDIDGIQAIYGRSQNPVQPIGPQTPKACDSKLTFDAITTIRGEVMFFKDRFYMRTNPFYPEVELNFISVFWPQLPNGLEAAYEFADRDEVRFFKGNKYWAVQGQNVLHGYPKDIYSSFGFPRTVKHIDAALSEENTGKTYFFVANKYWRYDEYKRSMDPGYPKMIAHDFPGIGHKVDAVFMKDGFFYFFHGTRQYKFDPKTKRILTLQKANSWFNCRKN
Procedure: The newly synthesized bivalent derivatives 1–3 were then tested in vitro on human recombinant ADAM8 in comparison with JG26 by a fluorometric assay. The inhibitory activity against a panel of MMPs and ADAM10/17 was determined as well to assess their selectivity profile. […]
VI. Biological Activity on Isolated Enzymes
MMP and ADAM10 inhibition assays.
Recombinant human MMP-14 catalytic domain was a kind gift of Prof. Gillian Murphy (Department of […]
Oncology, University of Cambridge, UK). Pro-MMP-1, pro-MMP-2, and pro-MMP-9, were purchased […]
from Calbiochem (Merck-Millipore). Pro-MMP-12 and ADAM10 were purchased from R&D Systems.
Proenzymes were activated immediately prior to use with p-aminophenylmercuric acetate (APMA 2 […]
mM for 1 h at 37°C for MMP-2 and MMP-1, 1 mM for 1 h at 37°C for MMP-9). Pro-MMP-12 was […]
auto activated by incubating in the fluorometric assay buffer (FAB: Tris 50 mM, pH = 7.5, NaCl 150 […]
mM, CaCl2 10 mM, Brij 35 0.05% and DMSO 1%) for 30 h at 37°C. For assay measurements, each […]
inhibitor stock solution (DMSO, 10 mM) was further diluted in FAB at seven different concentrations.
Activated enzyme (final concentration 0.56 nM for MMP-2, 1.3 nM for MMP-9, 1.0 nM for MMP- […]
14cd, 2.0 nM for MMP-1, 2.3 nM for MMP-12 and 20 nM for ADAM10) and inhibitor solutions were […]
incubated in the assay buffer for 3 h at 25 °C. ADAM10 was incubated for 1 h at 37°C in a different […]
buffer at pH 9 (Tris 25 mM, ZnCl2 25 µM, Brij-35 0.005 %). After the addition of 200 µM solution of […]
the fluorogenic substrate Mca-Lys-Pro-Leu-Gly-Leu-Dap(Dnp)-Ala-Arg-NH2 (Bachem) for all the […]
enzymes in DMSO (final concentration 2 µM for all enzymes, 10 µM for ADAM10), the hydrolysis […]
was monitored every 10 sec. for 15 min. recording the increase in fluorescence (λ ex = 325 nm, λ em = […]
400 nm) using a Molecular Devices SpectraMax Gemini XPS plate reader. The assays were performed […]
in triplicate in a total volume of 200 μL per well in 96-well microtitre plates (Corning, black, NBS).
Control wells lack inhibitor. The MMP inhibition activity was expressed in relative fluorescent units […]
(RFU). Percent of inhibition was calculated from control reactions without the inhibitor. IC50 was determined using the formula: v i/v o = 1/(1 + [I]/ IC50), where v i is the initial velocity of substrate cleavage in the presence of the inhibitor at concentration [I] and v o is the initial velocity in the absence of the inhibitor. Results were analyzed using SoftMax Pro software (version 5.4.3, Molecular Devices, Sunnyvale, CA) and Prism Software version 5.0 (GraphPad Software, Inc., La Jolla, CA, USA).
ADAM8 and ADAM17 inhibition assays […]

[1] = tested on: ADAM8-dependent shedding of CD23 in double-stable HEK cells (ADAM8/CD23); assay: Cell-based CD23 shedding assay (soluble CD23 ELISA); conditions: Homo sapiens, HEK293, 24 h incubation, 125 nM to 10 μM, ELISA of supernatants, read-out: IC50 for shedding of CD23 (soluble CD23 release)
Procedure: Next, these compounds were tested for their ability to inhibit the shedding of an ADAM8-dependent cell surface protein, the low affinity IgE receptor CD23, […]. In brief, a human embryonic kidney (HEK) cell line expressing ADAM8 and CD23[13] was incubated with different concentrations of inhibitors, and the release of soluble CD23 in the cell supernatants was determined by a CD23 enzyme-linked immunosorbent assay (ELISA) (Figure 4).
Figure 4 Effects of new compounds 1–3 and JG26 (125 nM to 10 μM) on the shedding of CD23 in a cell-based assay using double-stable HEK cells (ADAM8/CD23). After the incubation of cells with 1–3 and JG26 for 24 h, cell supernatants were collected and subjected to an ELISA to determine the amount of soluble CD23. Data are the mean values from three independent experiments performed in triplicate. […]
VII. Biological Activity on cells
Cell-based shedding assay
HEK293 cells stably transfected with ADAM8 and CD23 were incubated for 24 h at 37°C in the presence of inhibitors in concentrations indicated in DMEM medium supplemented with 10% fetal calf serum. A human soluble CD23 ELISA (R&D Systems, Biotechne, Wiesbaden) was used to detect ADAM8-dependent release of soluble CD23 in the cell culture medium. ELISA experiments were performed in three independent experiments in triplicates. The relative CD23 release (control = 100%) was determined for all samples. […]

Compound	pIC50 (MMP-1)	pIC50 [1]
NC(=O)NCCC[C@@H](NS(=O)(=O)c1ccc(OCc2cc(Br)cc(Br)c2)cc1)C(=O)NO [JG26, reference compound]	< 3.30	6.92
O=C(NCCC[C@@H](NS(=O)(=O)c1ccc(OCc2cc(Br)cc(Br)c2)cc1)C(=O)NO)c1cccc(C(=O)NCCC[C@@H](NS(=O)(=O)c2ccc(OCc3cc(Br)cc(Br)c3)cc2)C(=O)NO)c1 [Compound 2]	< 3.70	6.46
O=C(NCCC[C@@H](NS(=O)(=O)c1ccc(OCc2cc(Br)cc(Br)c2)cc1)C(=O)NO)NCCC[C@@H](NS(=O)(=O)c1ccc(OCc2cc(Br)cc(Br)c2)cc1)C(=O)NO [Compound 3]	3.46	6.10
O=C(CCCNC(=O)c1cccc(C(=O)NCCCC(=O)NCCC[C@@H](NS(=O)(=O)c2ccc(OCc3cc(Br)cc(Br)c3)cc2)C(=O)NO)c1)NCCC[C@@H](NS(=O)(=O)c1ccc(OCc2cc(Br)cc(Br)c2)cc1)C(=O)NO [Compound 1]	3.38	< 5.82
